This is an account of results in PMC12096669, “Structural isomerisation affects the antitubercular activity of adamantyl-isoxyl adducts” (Journal of Enzyme Inhibition and Medicinal Chemistry, 2025).

In brackets after ≈: the same amount, converted by molar mass.

The first experiment deals with Mtb mc^27902 pMV261. Kind of experiment: microbe, parasite or virus in culture. It is filed as cell-based. The note with it: Mycobacterium tuberculosis; mc^27902 pMV261; REMA; read-out: Mtb MIC95.
In the case of `CC(C)=CCC/C(C)=C/CNCCNC1C2CC3CC(C2)CC1C3` (stereo not drawn) [SQ109, N-Adamantan-2-yl-N’-((E)-3,7-dimethylocta-2,6-dienyl)ethane-1,2-diamine], the MIC amounted to 0.33 µg/mL.

Staying with this experiment, now noted: Mycobacterium tuberculosis; values used for the SI, in brackets; […]; read-out: MIC95.
With `CC(C)=CCC/C(C)=C/CNCCNC1C2CC3CC(C2)CC1C3` (stereo not drawn) [SQ109, N-Adamantan-2-yl-N’-((E)-3,7-dimethylocta-2,6-dienyl)ethane-1,2-diamine], the MIC was determined as 0.12 µg/mL.

Staying with this experiment, now noted: Mycobacterium tuberculosis; values used for the SI; […]; read-out: MIC95.
In the case of `CC(C)=CCC/C(C)=C/CNCCNC1C2CC3CC(C2)CC1C3` (stereo not drawn) [SQ109, N-Adamantan-2-yl-N’-((E)-3,7-dimethylocta-2,6-dienyl)ethane-1,2-diamine], the MIC is 0.36 µM.

The next experiment deals with AC10 hybrid adult ventricular cardiomyocytes. Kind of experiment: MTS cytotoxicity assay, cardiomyocytes. It is filed as cell-based. The note with it: Homo sapiens, AC10 cardiac, 96 h, read-out: MTS percentage survival @ 100 µM. (In general: Tetrazolium dyes change colour on reduction, which living cells bring about.)
Regarding `CC(C)=CCC/C(C)=C/CNCCNC1C2CC3CC(C2)CC1C3` (stereo not drawn) [SQ109, N-Adamantan-2-yl-N’-((E)-3,7-dimethylocta-2,6-dienyl)ethane-1,2-diamine], the viability at 100 µM was found to be 40.2 ± 2.3%.

In another experiment the test system is P. aeruginosa DSM 19880. The experiment in a line: Non-mycobacterial REMA assay. It is filed as cell-based. The note with it: Pseudomonas aeruginosa, DSM19880, read-out: Minimum inhibitory concentration 95%.
For `CC(C)=CCC/C(C)=C/CNCCNC1C2CC3CC(C2)CC1C3` (stereo not drawn) [SQ109, N-Adamantan-2-yl-N’-((E)-3,7-dimethylocta-2,6-dienyl)ethane-1,2-diamine], the MIC is > 32 µg/mL.

In another experiment the test system is S. aureus NCTC 2981. Kind of experiment: Non-mycobacterial REMA assay. It is filed as cell-based. As to conditions: Staphylococcus aureus, NCTC2981, read-out: Minimum inhibitory concentration 95%.
As to `CC(C)=CCC/C(C)=C/CNCCNC1C2CC3CC(C2)CC1C3` (stereo not drawn) [SQ109, N-Adamantan-2-yl-N’-((E)-3,7-dimethylocta-2,6-dienyl)ethane-1,2-diamine], the MIC turned out to be 16.9 µg/mL (≈ 51 µM).

A further experiment concerns E. faecalis NCTC 775. Kind of experiment: Non-mycobacterial REMA assay. The experiment is classed as cell-based. As to conditions: Enterococcus faecalis, NCTC775, read-out: Minimum inhibitory concentration 95%.
Regarding `CC(C)=CCC/C(C)=C/CNCCNC1C2CC3CC(C2)CC1C3` (stereo not drawn) [SQ109, N-Adamantan-2-yl-N’-((E)-3,7-dimethylocta-2,6-dienyl)ethane-1,2-diamine], the MIC is 21.1 µg/mL (≈ 63.8 µM).

In the next experiment the test system is S. pyogenes NCTC 8198. Kind of experiment: Non-mycobacterial REMA assay. The experiment is classed as cell-based. The note with it: Streptococcus pyogenes, NCTC8198, read-out: Minimum inhibitory concentration 95%.
As for `CC(C)=CCC/C(C)=C/CNCCNC1C2CC3CC(C2)CC1C3` (stereo not drawn) [SQ109, N-Adamantan-2-yl-N’-((E)-3,7-dimethylocta-2,6-dienyl)ethane-1,2-diamine], the MIC was > 32 µg/mL.

The test system of the next experiment is M. bovis BCG.
Experiment: not given
The note with it: library of 52,000 compounds; cited from earlier work.
Regarding `O=C(N/N=C/c1cccc(F)c1)C12CC3CC(CC(C3)C1)C2` [adamantyl-hydrazone], the MIC was < 2 µg/mL.

Another experiment concerns B. cereus NCTC 7464. The experiment in a line: Non-mycobacterial REMA assay. As to conditions: Bacillus cereus, NCTC7464, read-out: Minimum inhibitory concentration 95%. It is filed as cell-based.
For `CC(C)=CCC/C(C)=C/CNCCNC1C2CC3CC(C2)CC1C3` (stereo not drawn) [SQ109, N-Adamantan-2-yl-N’-((E)-3,7-dimethylocta-2,6-dienyl)ethane-1,2-diamine], the MIC was > 32 µg/mL.

Another experiment concerns E. faecium NCTC 7171. Kind of experiment: Non-mycobacterial REMA assay. As to conditions: Enterococcus faecium, NCTC7171, read-out: Minimum inhibitory concentration 95%. The experiment is classed as cell-based.
Consider `CC(C)=CCC/C(C)=C/CNCCNC1C2CC3CC(C2)CC1C3` (stereo not drawn) [SQ109, N-Adamantan-2-yl-N’-((E)-3,7-dimethylocta-2,6-dienyl)ethane-1,2-diamine], for which the MIC was determined as 20.1 µg/mL (≈ 60.8 µM).

In the next experiment the test system is K. pneumoniae NCTC 9633. The experiment in a line: Non-mycobacterial REMA assay. It is filed as cell-based. As to conditions: Klebsiella pneumoniae, NCTC9633, read-out: Minimum inhibitory concentration 95%.
`CC(C)=CCC/C(C)=C/CNCCNC1C2CC3CC(C2)CC1C3` (stereo not drawn) [SQ109, N-Adamantan-2-yl-N’-((E)-3,7-dimethylocta-2,6-dienyl)ethane-1,2-diamine]: the MIC was > 32 µg/mL.

The test system of a further experiment is RAW264.7 murine macrophage cells. Kind of experiment: cells. It is filed as cell-based. The note with it: Mus musculus, RAW264.7, 96 h, RAW264.7 macrophage; 100 µM; 96 h; read-out: MTS percentage survival @ 100 µM.
As for `CC(C)=CCC/C(C)=C/CNCCNC1C2CC3CC(C2)CC1C3` (stereo not drawn) [SQ109, N-Adamantan-2-yl-N’-((E)-3,7-dimethylocta-2,6-dienyl)ethane-1,2-diamine], the viability at 100 µM worked out at 61.1 ± 2.9%.

Still in this experiment, the particulars now being: Mus musculus; RAW264.7 macrophages; 0 to 100 µM; read-out: IC50 (cell viability, MTS assay).
One may read the IC50 as the midpoint of a concentration-inhibition curve. As to `CC(C)=CCC/C(C)=C/CNCCNC1C2CC3CC(C2)CC1C3` (stereo not drawn) [SQ109, N-Adamantan-2-yl-N’-((E)-3,7-dimethylocta-2,6-dienyl)ethane-1,2-diamine], the half-inhibitory concentration (IC50) is > 100 µM.

Still in this experiment, the particulars now being: from RAW264.7 IC50 and Mtb MIC95.
For `CC(C)=CCC/C(C)=C/CNCCNC1C2CC3CC(C2)CC1C3` (stereo not drawn) [SQ109, N-Adamantan-2-yl-N’-((E)-3,7-dimethylocta-2,6-dienyl)ethane-1,2-diamine], the “selectivity index (SI)” value was > 100.

Another experiment has as its system E. coli K12. Kind of experiment: Non-mycobacterial REMA assay. It is filed as cell-based. The note with it: Escherichia coli, read-out: Minimum inhibitory concentration 95%. The procedure:
(§1) Bacterial minimum inhibition concentrations (MIC) were determined using the Resazurin Microtiter Assay (REMA) method according to Palomino et al.[28] Stock solutions of the tested compounds were prepared in sterile dimethyl sulfoxide (DMSO), then diluted in 7H9OPALPen^1Cyc^10(Kan^25) to obtain a final drug concentration range of 32–0.032 μg/mL. A suspension of the test Mycobacterium was cultured in 7H9OPALPen^1Cyc^10(Kan^25) containing 0.05% v/v Tween^80 for one week at 37 °C, 5% CO2. The bacterial suspension was adjusted to 0.5 McFarland and diluted in 7H9OPALPen^1Cyc^10(Kan^25) 1:25. 100 μL of the inoculum was added to each well of a 96-well microplate together with 100 μL of the compound titration. The plate was incubated at 37 °C, 5% CO2. After 5 days, 10.5 μL 0.1% (w/v) sterile resazurin (solubilised in sterile PBS containing 0.02% v/v Tween^80) was added. Reduced resazurin was detected using fluorescence (Ex/Em 530/590 nm) in a FLUOstar Optima, BMG Labtech. All titre measurements were plotted in SigmaPlot™ and 4-parameter logistic (4PL) model regressions conducted. The relative MIC95 of each curve was calculated and averaged (Table 1). Testing was performed in duplicate with two independent biological repeats. […] Though, for these cultures, dilutions were performed at 1:125 prior to inoculation of the plate and incubation for 4 h (Supplementary Table 3). Known antitubercular agents used in this study were rifampicin (RIF), isoniazid (INH), ISO, EMB, ethionamide (ETH), linezolid (LZD), delamanid (DEL) and moxifloxacin (MOX).
As to `CC(C)=CCC/C(C)=C/CNCCNC1C2CC3CC(C2)CC1C3` (stereo not drawn) [SQ109, N-Adamantan-2-yl-N’-((E)-3,7-dimethylocta-2,6-dienyl)ethane-1,2-diamine], the MIC was 17.4 µg/mL (≈ 52.5 µM).

The next experiment deals with S. enterica NCTC 6754. The experiment in a line: Non-mycobacterial REMA assay. It is filed as cell-based. As to conditions: Salmonella enterica, NCTC6754, read-out: Minimum inhibitory concentration 95%. The procedure: as §1
Turning to `CC(C)=CCC/C(C)=C/CNCCNC1C2CC3CC(C2)CC1C3` (stereo not drawn) [SQ109, N-Adamantan-2-yl-N’-((E)-3,7-dimethylocta-2,6-dienyl)ethane-1,2-diamine], the MIC is > 32 µg/mL.

Another experiment has as its system HepG2 human liver cancer cell line. The experiment in a line: MTS cytotoxicity assay, liver cells. It is filed as cell-based. The note with it: 96 h, read-out: MTS percentage survival @ 100 µM.
On to `CC(C)=CCC/C(C)=C/CNCCNC1C2CC3CC(C2)CC1C3` (stereo not drawn) [SQ109, N-Adamantan-2-yl-N’-((E)-3,7-dimethylocta-2,6-dienyl)ethane-1,2-diamine], for which the viability at 100 µM was found to be 15.1 ± 4.1%.

In a further experiment the test system is S. agalactiae NCTC 8181. The experiment in a line: Non-mycobacterial REMA assay. It is filed as cell-based. As to conditions: Streptococcus agalactiae, NCTC8181, read-out: Minimum inhibitory concentration 95%.
Turning to `CC(C)=CCC/C(C)=C/CNCCNC1C2CC3CC(C2)CC1C3` (stereo not drawn) [SQ109, N-Adamantan-2-yl-N’-((E)-3,7-dimethylocta-2,6-dienyl)ethane-1,2-diamine], the MIC is > 32 µg/mL.

Another experiment concerns E. cloacae NCTC 10005. The experiment in a line: Non-mycobacterial REMA assay. It is filed as cell-based. The note with it: Enterobacter cloacae, NCTC10005, read-out: Minimum inhibitory concentration 95%.
In the case of `CC(C)=CCC/C(C)=C/CNCCNC1C2CC3CC(C2)CC1C3` (stereo not drawn) [SQ109, N-Adamantan-2-yl-N’-((E)-3,7-dimethylocta-2,6-dienyl)ethane-1,2-diamine], the MIC was found to be 16.8 µg/mL (≈ 50.9 µM).

Another experiment has as its system A. baumannii NCTC 12156. The experiment in a line: Non-mycobacterial REMA assay. It is filed as cell-based. As to conditions: Acinetobacter baumannii, NCTC12156, read-out: Minimum inhibitory concentration 95%.
As to `CC(C)=CCC/C(C)=C/CNCCNC1C2CC3CC(C2)CC1C3` (stereo not drawn) [SQ109, N-Adamantan-2-yl-N’-((E)-3,7-dimethylocta-2,6-dienyl)ethane-1,2-diamine], the MIC came out at 20.7 µg/mL (≈ 62.7 µM).
